# Values of other authors as cited in patent US20170239455A1 (priority 2014, published 2017).
# System: virus Ebola
compound,measurement,value
II [molecular iodine],effectiveness against the virus,effective
